We go through 19 compounds from article PMC6273912, “Novel 5-Substituted 2-(Aylmethylthio)-4-chloro-N-(5-aryl-1,2,4-triazin-3-yl)benzenesulfonamides: Synthesis, Molecular Structure, Anticancer Activity, Apoptosis-Inducing Activity and Metabolic Stability” (Molecules, 2016).

What all share (type): cell-based, human
For one experiment, the system named is HeLa (cervical cancer). As to the kind of experiment: MTT cell viability assay, HeLa. Particulars: Homo sapiens, 72 h; for IC50: 72 h of incubation, mean ± SD. Here is the method: (§1) All chemicals, if not stated otherwise, were obtained from Sigma-Aldrich (St. Louis, MO, USA). The MCF-7 cell line was purchased from Cell Lines Services (Eppelheim, Germany), the HeLa and HCT-116 cell lines were obtained from the Department of Microbiology, Tumor and Cell Biology, Karolinska Institute (Stockholm, Sweden). Cells were cultured in Dulbecco’s modified Eagle’s medium (DMEM) supplemented with 10% fetal bovine serum, 2 mM glutamine, 100 units/mL penicillin, and 100 μg/mL streptomycin. Cultures were maintained in a humidified atmosphere with 5% CO2 at 37 °C in an incubator (HeraCell, Heraeus, Langenselbold, Germany).
(§2) Cell viability was determined using the MTT (3-(4,5-dimethylthiazol-2-yl)-2,5-diphenyl-tetrazoliumbromide) assay. Stock solutions of the studied compounds were prepared in 100% DMSO. […] Cells were seeded in 96-well plates at a density of 5 × 10^3 cells/well and treated for 72 h with the examined compounds in the concentration range 1–100 μM (1, 10, 25, 50 and 100 μM). Following treatment, MTT (0.5 mg/mL) was added to the medium and cells were further incubated for 2 h at 37 °C. Cells were lysed with DMSO and the absorbance of the formazan solution was measured at 550 nm with a plate reader (1420 multilabel counter, Victor, Jügesheim, Germany). […] The experiment was performed in triplicate. Values are expressed as the mean ± SD of at least three independent experiments.
For orientation: Tetrazolium dyes change colour on reduction, which living cells bring about.

A further experiment has as its system HCT-116 (colon cancer). The experiment is described as follows: MTT cell viability assay, HCT-116. The settings on record: Homo sapiens, HCT-116, 72 h, 72 h of incubation, mean ± SD. On the procedure: as §1, §2
In the next experiment the test system is MCF-7 (breast cancer). As to the kind of experiment: MTT cell viability assay, MCF-7. The settings on record: mean ± SD. Here is the method: as §1, §2
Where [1] appears, read: Homo sapiens, MCF7, 72 h of incubation.

In general, IC50 refers to the point on the concentration scale where inhibition reaches its midpoint. Lower therefore signals inhibition by little substance. Consider `COc1ccc(-c2cnnc(NS(=O)(=O)c3cc(C(=O)Nc4ccc(Cl)cc4)c(Cl)cc3SCc3ccccc3)n2)cc1OC` [Compound 49, 4-Benzylthio-2-chloro-N-(4-chlorophenyl)-5-{N-[5-(3,4-dimethoxyphenyl)-1,2,4-triazin-3-yl]sulfamoyl}-benzamide], for which the IC50 in the experiment with HeLa (cervical cancer) turned out to be 120 ± 6 µM; in the experiment with HCT-116 (colon cancer), 110 ± 2 µM; with MCF-7 (breast cancer) (setting [1]) it was 81 ± 5 µM.

In the case of `Cc1cc(S(=O)(=O)Nc2nncc(-c3cccc(F)c3)n2)c(SCc2ccc(C(F)(F)F)cc2)cc1Cl` [Compound 33, 4-Chloro-N-[5-(3-fluorophenyl)-1,2,4-triazin-3-yl]-5-methyl-2-[4-(trifluoromethyl)benzylthio]benzenesulfonamide], the 50% inhibitory concentration (IC50) is 76 ± 3 µM with HeLa (cervical cancer), 67 ± 1 µM in the experiment with HCT-116 (colon cancer) and 88 ± 1 µM in the experiment with MCF-7 (breast cancer) (setting [1]).

Take `COc1ccc(NC(=O)c2cc(S(=O)(=O)Nc3nncc(-c4ccc(OC)cc4)n3)c(SCc3ccccc3)cc2Cl)cc1` [Compound 57, 4-Benzylthio-2-chloro-N-(4-methoxyphenyl)-5-{N-[5-(4-methoxyphenyl)-1,2,4-triazin-3-yl]sulfamoyl}benzamide]: the results for the IC50 in the experiment with HeLa (cervical cancer), with HCT-116 (colon cancer) and in the experiment with MCF-7 (breast cancer) (setting [1]) were 80 ± 1 µM, 73 ± 1 µM and 90 ± 1 µM, respectively.

For `COc1ccc(NC(=O)c2cc(S(=O)(=O)Nc3nncc(-c4cccc(OC)c4)n3)c(SCc3ccccc3)cc2Cl)cc1` [Compound 58, 4-Benzylthio-2-chloro-N-(4-methoxyphenyl)-5-{N-[5-(3-methoxyphenyl)-1,2,4-triazin-3-yl]sulfamoyl}benzamide], the 50% inhibitory concentration (IC50) is 88 ± 6 µM with HeLa (cervical cancer), 98 ± 2 µM with HCT-116 (colon cancer) and 92 ± 6 µM with MCF-7 (breast cancer) (setting [1]).

On to `O=C(Nc1ccc(Cl)cc1)c1cc(S(=O)(=O)Nc2nncc(-c3cccc(F)c3)n2)c(SCc2ccccc2)cc1Cl` [Compound 45, 4-Benzylthio-2-chloro-N-(4-chlorophenyl)-5-{N-[5-(3-fluorophenyl)-1,2,4-triazin-3-yl]sulfamoyl}benzamide], for which the IC50 in the experiment with HeLa (cervical cancer) was found to be 82 ± 1 µM; with HCT-116 (colon cancer), 97 ± 2 µM; in the experiment on MCF-7 (breast cancer) (setting [1]) it was 90 ± 1 µM.

For the compound `COc1cc(-c2cnnc(NS(=O)(=O)c3cc(C)c(Cl)cc3SCc3ccccc3)n2)cc(OC)c1OC` [Compound 32, 2-Benzylthio-4-chloro-5-methyl-N-[5-(3,4,5-trimethoxyphenyl)-1,2,4-triazin-3-yl]benzenesulfonamide], the values for the IC50 in the experiment on HeLa (cervical cancer), in the experiment on HCT-116 (colon cancer) and in the experiment on MCF-7 (breast cancer) (setting [1]) were 87 ± 4 µM, 88 ± 3 µM and 87 ± 4 µM, respectively.

For `COc1cc(-c2cnnc(NS(=O)(=O)c3cc(C(=O)Nc4ccc(Cl)cc4)c(Cl)cc3SCc3ccccc3)n2)cc(OC)c1OC` [Compound 50, 4-Benzylthio-2-chloro-N-(4-chlorophenyl)-5-{N-[5-(3,4,5-trimethoxyphenyl)-1,2,4-triazin-3-yl]sulfamoyl}-benzamide], the IC50 in the experiment with HeLa (cervical cancer) came out at 130 ± 8 µM; in the experiment with HCT-116 (colon cancer), 115 ± 3 µM; in the experiment on MCF-7 (breast cancer) (setting [1]), 120 ± 4 µM.

For `Cc1cc(S(=O)(=O)Nc2nncc(-c3cccc(F)c3)n2)c(SCc2ccccc2)cc1Cl` [Compound 27, 2-Benzylthio-4-chloro-N-[5-(3-fluorophenyl)-1,2,4-triazin-3-yl]-5-methylbenzenesulfonamide], the IC50 is 84 ± 1 µM with HeLa (cervical cancer), 75 ± 1 µM in the experiment with HCT-116 (colon cancer) and 80 ± 2 µM in the experiment on MCF-7 (breast cancer) (setting [1]).

Take `COc1ccc(-c2cnnc(NS(=O)(=O)c3cc(C(=O)Nc4ccc(C)cc4)c(Cl)cc3SCc3ccccc3)n2)cc1OC` [Compound 55, 4-Benzylthio-2-chloro-5-{N-[5-(3,4-dimethoxyphenyl)-1,2,4-triazin-3-yl]sulfamoyl}-N-(4-methylphenyl)-benzamide]: the IC50 with HeLa (cervical cancer) amounted to 105 ± 4 µM; with HCT-116 (colon cancer) it was 150 ± 3 µM; in the experiment with MCF-7 (breast cancer) (setting [1]) it was 150 ± 6 µM.

`N.N.[Cl][Pt][Cl]` [Cisplatin, reference compound] displayed an IC50 in the experiment on MCF-7 (breast cancer) (72 h of incubation) of 3 ± 0.1 µM.

As to `COc1ccc(-c2cnnc(NS(=O)(=O)c3cc(C)c(Cl)cc3SCc3ccccc3)n2)cc1` [Compound 29, 2-Benzylthio-4-chloro-N-[5-(4-methoxyphenyl)-1,2,4-triazin-3-yl]-5-methylbenzenesulfonamide], the figures for the half-inhibitory concentration (IC50) in the experiment with HeLa (cervical cancer), in the experiment with HCT-116 (colon cancer) and with MCF-7 (breast cancer) (setting [1]) were 190 ± 7 µM, 720 ± 36 µM and 110 ± 2 µM, respectively.

Take `COc1cccc(-c2cnnc(NS(=O)(=O)c3cc(C(=O)Nc4ccccc4)c(Cl)cc3SCc3ccccc3)n2)c1` [Compound 43, 4-Benzylthio-2-chloro-5-{N-[5-(3-methoxyphenyl)-1,2,4-triazin-3-yl]sulfamoyl}-N-phenylbenzamide]: the IC50 came to 130 ± 10 µM with HeLa (cervical cancer), 92 ± 3 µM in the experiment with HCT-116 (colon cancer) and 87 ± 2 µM in the experiment with MCF-7 (breast cancer) (setting [1]).

`COc1cc(-c2cnnc(NS(=O)(=O)c3cc(C(=O)Nc4ccc(C)cc4)c(Cl)cc3SCc3ccccc3)n2)cc(OC)c1OC` [Compound 56, 4-Benzylthio-2-chloro-N-(4-methylphenyl)-5-{N-[5-(3,4,5-trimethoxyphenyl)-1,2,4-triazin-3-yl]sulfamoyl}-benzamide]: the IC50 in the experiment with HeLa (cervical cancer) worked out at 80 ± 2 µM; with HCT-116 (colon cancer), 75 ± 2 µM; in the experiment with MCF-7 (breast cancer) (setting [1]), 89 ± 3 µM.

As for `COc1cccc(-c2cnnc(NS(=O)(=O)c3cc(C(=O)Nc4ccc(Cl)cc4)c(Cl)cc3SCc3ccccc3)n2)c1` [Compound 48, 4-Benzylthio-2-chloro-N-(4-chlorophenyl)-5-{N-[5-(3-methoxyphenyl)-1,2,4-triazin-3-yl]sulfamoyl}-benzamide], the IC50 with HeLa (cervical cancer) is 80 ± 2 µM; in the experiment on HCT-116 (colon cancer), 80 ± 3 µM; in the experiment on MCF-7 (breast cancer) (setting [1]) it was 87 ± 3 µM.

A word on the viability: it is a per cent measure of how many cells are alive, often set against a control. For `Cc1ccc(NC(=O)c2cc(S(=O)(=O)Nc3nncc(-c4cccc(F)c4)n3)c(SCc3ccccc3)cc2Cl)cc1` [Compound 51, 4-Benzylthio-2-chloro-5-{N-[5-(3-fluorophenyl)-1,2,4-triazin-3-yl]sulfamoyl}-N-(4-methylphenyl)benzamide], the viability at 100 µM in the experiment on HeLa (cervical cancer) (HeLa, 100 μM, read-out: Viability of cell line at 100 μM (HeLa)) turned out to be 100%. The half-inhibitory concentration (IC50) was 190 ± 13 µM in the experiment with HCT-116 (colon cancer) and 95 ± 5 µM with MCF-7 (breast cancer) (setting [1]).

On to `COc1ccc(-c2cnnc(NS(=O)(=O)c3cc(C)c(Cl)cc3SCc3c(C)noc3C)n2)cc1` [Compound 41, 4-Chloro-2-[(3,5-dimethylizoxazol-4-yl)methylthio]-N-[5-(4-methoxyphenyl)-1,2,4-triazin-3-yl]-5-methyl-benzenesulfonamide], for which the half-maximal inhibitory concentration (IC50) in the experiment with HeLa (cervical cancer) worked out at 85 ± 1 µM; in the experiment with HCT-116 (colon cancer), 97 ± 2 µM; with MCF-7 (breast cancer) (setting [1]), 99 ± 1 µM.

For the compound `COc1cccc(-c2cnnc(NS(=O)(=O)c3cc(C(=O)Nc4ccc(C)cc4)c(Cl)cc3SCc3ccccc3)n2)c1` [Compound 54, 4-Benzylthio-2-chloro-5-{N-[5-(3-methoxyphenyl)-1,2,4-triazin-3-yl]sulfamoyl}-N-(4-methylphenyl)benzamide], the IC50 is 82 ± 1 µM in the experiment on HeLa (cervical cancer), 84 ± 5 µM with HCT-116 (colon cancer) and 96 ± 5 µM in the experiment on MCF-7 (breast cancer) (setting [1]).

On to `COc1ccc(-c2cnnc(NS(=O)(=O)c3cc(C(=O)Nc4ccccc4)c(Cl)cc3SCc3ccccc3)n2)cc1` [Compound 42, 4-Benzylthio-2-chloro-5-{N-[5-(4-methoxyphenyl)-1,2,4-triazin-3-yl]sulfamoyl}-N-phenylbenzamide], for which the IC50 in the experiment on HeLa (cervical cancer) is 82 ± 1 µM; with HCT-116 (colon cancer), 77 ± 2 µM; with MCF-7 (breast cancer) (setting [1]), 83 ± 2 µM.

For `COc1ccc(NC(=O)c2cc(S(=O)(=O)Nc3nncc(-c4ccc(OC)c(OC)c4)n3)c(SCc3ccccc3)cc2Cl)cc1` [Compound 59, 4-Benzylthio-2-chloro-5-{N-[5-(3,4-dimethoxyphenyl)-1,2,4-triazin-3-yl]sulfamoyl}-N-(4-methoxyphenyl)-benzamide], the IC50 was 150 ± 2 µM in the experiment on HeLa (cervical cancer), 140 ± 5 µM in the experiment with HCT-116 (colon cancer) and 100 ± 5 µM in the experiment with MCF-7 (breast cancer) (setting [1]).
